In patent publication US20250009819A1, “NOVEL PROBIOTICS AND USE THEREOF” (PBLBIOLAB CO., LTD., priority 2021, published 2025):

Assays:
Format in all cases: in vivo, C57BL/6 male mice
[1] = tested on: animals with LPS-induced cognitive impairment; assay: Animals with LPS-induced cognitive impairment: cognitive improvement, hippocampus indicators; settings: LPS-treated mice, 1×10^9 CFU/mouse or sulfasalazine 50 mg/kg once a day for 5 days
Procedure: (§1) Hippocampus, colon, and spleen tissues were homogenized by adding 1 ml of RIPA buffer (Gibco) containing protease inhibitor cocktail and centrifuged at 4° C., 13000 rpm for 15 min to obtain supernatant. Indicators of this supernatant were measured using an ELISA kit (Ebioscience).
The Y-shaped maze measurement device is shaped like an alphabetical Y with three arms extending from it, each arm being 25 cm long, 14 cm high, 5 cm wide, and positioned at the same angle. At the end of one arm of the Y-shaped maze, the animal was placed with its head facing out and allowed to freely navigate the arm for 8 minutes. The animal's movements were recorded, and reported as arm entries when the animal entered the arm with its hind paw, and the animal's movement was represented by an alternation, which was defined as one alternation when the animal passed through the three arms in succession. The amount of spontaneous alternation behavior was expressed as a percentage between the actual number of alternations and the maximum possible number of alternations (i.e., the total number of […] minus 2).
The experiment was conducted in a box (40×40×40 cm) made so that the outside could not be seen from the inside. Two objects (A, A′) of the same shape and size were fixedly disposed in a box and the mouse was relocated to start from the center of the box. Then, the number of times the mouse made contact with the two objects was recorded for 10 minutes. After 24 hours, one of the two objects was replaced with a new object (A, B). Then, one original object and one new object were prepared, and the animal's exploration time was measured.
(§2) C57BL/6 male mice (5 weeks old, 19-21 g) were divided (6 mice in each group) and acclimatized to the laboratory for 1 week. To induce intestinal and brain diseases, mice were intraperitoneally administered Escherichia coli-derived LPS (10 μg/kg) once daily for 5 days. […] Experimental animals in the normal group were orally administered with a physiological saline solution, which was used to suspend lactic acid bacteria. The day following the conclusion of sample administration, the experimental animals were sacrificed, and samples from the brain hippocampus, colon, and spleen were collected. In the Hippocampus, inflammatory indicators, such as IFN-γ, TNF-α, and IL-10, were measured using ELISA. In the colon, intestinal length and inflammatory indicators, such as IFN-γ, TNF-α, and IL-10, were measured. In the spleen, Th1 cells and Treg cells were measured by FACS (Fluorescence-Activated Cell Sorting).

[2] = tested on: animals with LPS-induced cognitive impairment; assay: Animals with LPS-induced cognitive impairment: improvement effect in spleen; settings: LPS-treated mice, 1×10^9 CFU/mouse or sulfasalazine 50 mg/kg once a day for 5 days; for Foxp3 (fold change) / Tbet (fold change) / Tbet/Foxp3: spleen qPCR; for IFN-γ/IL-10 / IL-10 / Interferon (IFN)-γ / NK cell cytoxicity (%) / Phagocytosis (%) / TNF-α / TNF-α/IL-10: spleen
Procedure: as §1
(§3) mRNA was isolated from spleen tissue using the RNA Isolation Kit: RNeasy Mini Kit (QIAGEN), converted to cDNA, and qPCR was performed to measure the expression rates of Tbet, Foxp3, and glyceraldehyde 3-phosphate dehydrogenase (GAPDH). The reaction product was first treated at 95° C. for 30 seconds, followed by 38 cycles of 5 seconds at 95° C. and 30 seconds at 72° C. for analysis.
as §2

healthy animal = assay: Healthy animal: spleen parameters; settings: healthy mice, 1×10^9 CFU/mouse orally once a day for 5 days; for Foxp3 (fold change) / Tbet (fold change) / Tbet/Foxp3: spleen qPCR; for IFN-γ/IL-10 / IL-10 / Interferon (IFN)-γ / NK cell cytoxicity (%) / Phagocytosis (%) / TNF-a/IL-10 / TNF-α: spleen
Procedure: as §1, §3
C57BL/6 male mice (5 weeks old, 19-21 g) were divided (6 mice in each group) and acclimatized to the laboratory for 1 week. The mice were orally administered once a day for 5 days with lactic acid bacteria as a test sample suspended in physiological saline solution at a concentration of 1×10^9 CFU per mouse (NK210 alone (LR): 1×10^9 CFU/mouse, NK219 alone (BL): 1×10^9 CFU/mouse, combined (210+219): 210, 8×10^8 CFU/mouse and 219, 2×10^8 CFU/mouse). […] The day following the conclusion of sample administration, the experimental animals were sacrificed, and samples from the brain hippocampus, colon, and spleen were collected. In the Hippocampus, inflammatory indicators, such as IFN-γ, TNF-α, and IL-10, were measured using ELISA. In the colon, intestinal length and inflammatory indicators, such as IFN-γ, TNF-α, and IL-10, were measured. In the spleen, Th1 cells and Treg cells were measured by FACS (Fluorescence-Activated Cell Sorting).

[3] = tested on: animals with LPS-induced cognitive impairment; assay: Animals with LPS-induced cognitive impairment: colitis improvement (colon); settings: LPS-treated mice, 1×10^9 CFU/mouse or sulfasalazine 50 mg/kg once a day for 5 days
Procedure: To 100 mg of colon tissue, 200 μl of 10 mM potassium phosphate buffer (pH 7.0) containing 0.5% hexadecyl trimethyl ammonium bromide was added and homogenized. Then, the supernatant was obtained by centrifugation for 10 minutes at 4° C. and 10,000 g. A volume of 50 μl of the supernatant was added to 0.95 mk of reaction solution (containing 1.6 mM tetramethyl benzidine and 0.1 mM H2O2), reacted at 37° C., and absorbance was monitored over time at 650 nm.
as §1, §2

Substance | Exoporation (%) (in NOR task) [1] | Spontaneous alteration (%) (in Y-maze task) [1] | IFN-γ/IL-10 ([1]; hippocampus) | IL-10 ([1]; hippocampus) [pg/mg] | Interferon (IFN)-γ ([1]; hippocampus) [pg/mg] | TNF-α/IL-10 ([1]; hippocampus) | Foxp3 (fold change) [2] [fold change] | Tbet (fold change) [2] [fold change] | Tbet/Foxp3 [2] | IFN-γ/IL-10 [2] | IL-10 [2] [pg/mg] | Interferon (IFN)-γ [2] [pg/mg] | NK cell cytoxicity (%) [2] [%] | Phagocytosis (%) [2] [%] | TNF-α [2] [pg/mg] | TNF-α/IL-10 [2] | Foxp3 (fold change) (healthy animal) | Tbet (fold change) (healthy animal) | Tbet/Foxp3 (healthy animal) | IFN-γ/IL-10 (healthy animal) | also measured
Lactobacillus rhamnosus NK210 | 76.00 | 69.36 | 0.52 | 46.94 | 23.04 | 0.23 | 1.07 | 1.58 | 1.55 | 1.15 | 10.49 | 11.92 | 7.78 | 36.01 | 4.00 | 0.38 | 1.05 | 1.41 | 1.45 | 1.38 | IL-10 (healthy animal): 9.45 pg/mg; Interferon (IFN)-γ (healthy animal): 13.02 pg/mg; NK cell cytoxicity (%) (healthy animal): 6.65%; Phagocytosis (%) (healthy animal): 50.03%; TNF-a/IL-10 (healthy animal): 0.37; TNF-α (healthy animal): 3.48 pg/mg; Colon (cm) [3]: 5.0 cm; IFN-γ/IL-10 [3]: 2.50; IL-10 [3]: 21.10 pg/mg; Interferon (IFN)-γ [3]: 44.24 pg/mg; MPO activity [3]: 4.55 μUnit/mg; TNF-α [3]: 20.76 pg/mg; TNF-α/IL-10 [3]: 0.98
Bifidobacterium longum NK219 | 76.97 | 71.06 | 0.50 | 47.71 | 24.09 | 0.24 | 1.32 | 1.27 | 1.05 | 1.32 | 8.71 | 11.29 | 6.93 | 34.55 | 4.00 | 0.47 | 1.05 | 1.80 | 1.86 | 1.35 | TNF-α ([1]; hippocampus): 10.72 pg/mg; IL-10 (healthy animal): 9.29 pg/mg; Interferon (IFN)-γ (healthy animal): 12.56 pg/mg; NK cell cytoxicity (%) (healthy animal): 8.52%; Phagocytosis (%) (healthy animal): 64.57%; TNF-a/IL-10 (healthy animal): 0.38; TNF-α (healthy animal): 3.49 pg/mg; Colon (cm) [3]: 4.8 cm; IFN-γ/IL-10 [3]: 2.35; IL-10 [3]: 19.56 pg/mg; Interferon (IFN)-γ [3]: 44.72 pg/mg; MPO activity [3]: 4.30 μUnit/mg; TNF-α [3]: 18.59 pg/mg; TNF-α/IL-10 [3]: 0.96
